Source: patent US20080262082A1, “COMPOSITION CONTAINING S-(-)-TULIPALIN B OR ACETYLATED-S-(-)-TULIPALIN B” (BIO SPECTRUM, INC., priority 2007, published 2008)

Tests used:
Format in all cases: cell-based
[1] = tested on: Staphylococcus aureus KCTC 1916; assay: MIC by broth dilution method; details: S. aureus, 37° C., 24 hours
[2] = tested on: Vibrio parahaemolyticus KCTC 27; assay: MIC by broth dilution method; details: V. parahaemolyticus, 37° C., 24 hours
[3] = tested on: Salmonella enteritidis KCTC 12400; assay: MIC by broth dilution method; details: S. enteritidis, 37° C., 24 hours
[4] = tested on: Escherichia coli KCTC 1039; assay: MIC by broth dilution method; details: E. coli, 37° C., 24 hours
[5] = tested on: Salmonella typhimurium KCTC 2514; assay: MIC by broth dilution method; details: S. typhimurium, 37° C., 24 hours
[6] = tested on: 18 species of pathogenic bacteria (aerobic); assay: Agar diffusion antibacterial test, overall (aerobic); details: all kinds of bacteria (aerobic); treatment concentration of 1.0%
[7] = tested on: 8 anaerobic bacterial species; assay: Agar diffusion antibacterial test, overall (anaerobic); details: anaerobic bacteria; concentration of 1.0%

SMILES | MIC [1] | MIC [2] | MIC [3] | MIC [4] | MIC [5] | Antibacterial effects [6] | Antibacterial activity [7]
C/C=C/C=C/C(=O)O [Sorbic acid, reference compound] | 0.04% | 0.03% | 0.01% | 0.01% | 0.03% |  | 
O=C1C(N(CO)C(=O)NCO)N(CO)C(=O)N1CO (stereo not drawn) [Germall II] | 0.03% | 0.02% | 0.01% | 0.005% | 0.02% |  | 
C=C1C(=O)OC[C@@H]1O [R-(+)-tulipalin B, (4R)-4-hydroxy-3-methylene-oxolan-2-one, reference compound] |  |  |  |  |  | no antibacterial effects | no antibacterial activity
